Test results from patent US10183944B2 (Asana Biosciences, LLC, priority 2011, dated 2019).

These compounds were tested against Syk (356-635 amino acids) catalytic domain (Homo sapiens (Human), UniProt P43405) (assay: Inhibition of enzymatic Syk kinase activity (radiometric)). Conditions: read-out: IC50 Syk.
Format: biochemical
Description: The objective of this assay was to examine by radiometric method the ability of compounds to inhibit Syk kinase enzyme. Syk is capable of phosphorylating substrates such as VAV, LAT, SLP-76, which in turn activate MAPK, PLCγ signaling pathways. […] This in vitro assay tests the ability of syk to phosphorylate a substrate peptide in the presence of ATP. By using a radio-labeled form of ATP, it is possible to measure the amount of phosphorylation of the substrate. The enzyme transfers a radio-labeled phosphate group from γ32 P labeled ATP to pG4T. Briefly the enzyme was incubated with substrate, radio-labeled & cold ATP and substrate in buffer with or without compounds. At the end of the reaction, the reaction mixture was transferred on to a Multiscreen filter plate and unreacted γ^32P ATP was washed off. The filter plate was dried and the radioactivity was measured on a scintillation counter to estimate the incorporated radioactivity on the substrate. The percent inhibition of activity of the enzyme was calculated by comparing counts in the presence and absence of compounds. […] 2.5 μL of 10% DMSO or compound in 10% DMSO was added to the wells in a 96 well V-bottom plate. Optimized concentration of in-house Syk enzyme (different batches of Syk (356-635) kinase domain) were used at optimized concentrations) ranging from 0.035 ng to 7.5 ng/reaction diluted in assay buffer was added to a total volume of 12.5 μL). Compound and protein were incubated for 30 minutes at room temperature on a plate shaker. Ten μL of a substrate mix containing 100 μM ATP (0.25 μL), γ-P^32-ATP (0.1 μL; 10 μCi/μL), pG4T (0.25 μL; 10 mg/mL) and 1× assay buffer (9.4 μL) was added to all the wells. Samples were incubated at 30° C. for 10 minutes after mixing. The reaction was stopped by the addition of 8N HCl (13 μL) containing 100 mM ATP. Thirty μL of sample was transferred to the center of a 2×2 cm^2 Whatman® P81 chromatography paper. After allowing the sample to dry for one minute, the assay squares were washed 3 times for 5 minutes each in ortho-phosphoric acid (0.5%) and once in acetone. Assay squares were dried for 15 minutes in a 30° C. oven and transferred to 96 well optiplate. Microscint-O® reagent (100 μL, Perkin Elmer) was added to each well, the plate was sealed with Topseal®-A microplates and incubated for 10 minutes at room temperature at very low speed on rocker and the plate was read in the Topcount® NXL instrument. The following calculations were made: Fold induction=radioactivity counts (uncorrected values) in positive control/substrate control.
`N#CCC1CCN(c2nc(Nc3ccc(N4CCC(O)CC4)cc3)c3c(=O)n(COP(=O)(O)O)ncc3n2)CC1` [Example 330, sodium (2-(4-(cyanomethyl)piperidin-1-yl)-4-((4-(4-hydroxypiperidin-1-yl)phenyl)amino)-5-oxopyrimido[4,5-d]pyridazin-6(5H)-yl)methyl phosphate] was tested, and the IC50 was > 100 nM.
In the case of `O=c1[nH]ncc2nc(N3CCCCCC3)nc(Nc3ccc(N4CCC(CCF)CC4)cc3)c12` [Example 298, 2-(azepan-1-yl)-4-((4-(4-(2-fluoroethyl)piperidin-1-yl)phenyl)amino) pyrimido[4,5-d]pyridazin-5-(6H)-one], the IC50 is reported as > 100 nM.
For `N#CCC1CCN(CCN2CCC(Nc3nc(N4CCCCCC4)nc4cn[nH]c(=O)c34)CC2)CC1` [Example 204, 2-(1-(2-(4-((2-(azepan-1-yl)-5-oxo-5,6-dihydropyrimido[4,5-d]pyridazin-4-yl)amino)piperidin-1-yl)ethyl)piperidin-4-yl)acetonitrile], the IC50 was > 100 nM.
In the case of `CCn1nnc(-c2ccc(Nc3nc(N4CCCCCC4)nc4cn[nH]c(=O)c34)cc2)n1` [Example 225, 2-(azepan-1-yl)-4-((4-(2-ethyl-2H-tetrazol-5-yl)phenyl)amino)pyrimido[4,5-d]pyridazin-5(6H)-one], the IC50 is reported as > 100 nM.
With `CC(C)(C#N)N1CCN(c2ccc(Nc3nc(N4CCCCCC4)nc4cn[nH]c(=O)c34)cc2)CC1` [Example 111, 2-(4-(4-((2-(azepan-1-yl)-5-oxo-5,6-dihydropyrimido[4,5-d]pyridazin-4-yl)amino)phenyl)piperazin-1-yl)-2-methylpropanenitrile] the IC50 was < 50 nM.
`COc1ccc(Nc2nc(N3CCCCCC3)nc3cn[nH]c(=O)c23)cc1OC` [Example 318, 2-(azepan-1-yl)-4-((3,4-dimethoxyphenyl)amino)pyrimido[4,5-d]pyridazin-5(6H)-one] was tested, and the IC50 was > 100 nM.
With `COc1cccc(Nc2nc(N3CCC(CC#N)CC3)nc3cn[nH]c(=O)c23)c1` [Example 321, 2-(1-(4-((3-methoxyphenyl)amino)-5-oxo-5,6-dihydropyrimido[4,5-d]pyridazin-2-yl)piperidin-4-yl)acetonitrile] the IC50 was > 100 nM.
In the case of `CS(=O)(=O)c1ccc(Nc2nc(N3CCC(CC#N)CC3)nc3cn[nH]c(=O)c23)cc1` [Example 333, 2-(1-(4-((4-(methylsulfonyl)phenyl)amino)-5-oxo-5,6-dihydropyrimido[4,5-d]pyridazin-2-yl)piperidin-4-yl) acetonitrile], the IC50 is reported as > 100 nM.
With `O=c1[nH]ncc2nc(N3CCCCCC3)nc(Nc3cccc(CO)c3)c12` [Example 310, 2-(azepan-1-yl)-4-((3-(hydroxymethyl)phenyl)amino)pyrimido[4,5-d]pyridazin-5(6H)-one] the IC50 was > 100 nM.
`CC(C)(C#N)C1CCN(c2ccc(Nc3nc(-c4ccccc4)nc4cn[nH]c(=O)c34)cc2)CC1` [Example 119, 2-methyl-2-(1-(4-((5-oxo-2-phenyl-5,6-dihydropyrimido[4,5-d]pyridazin-4-yl)amino)phenyl)piperidin-4-yl) propanenitrile] was tested, and the IC50 was > 100 nM.
With `N#CCC1CCN(c2nc(Nc3ccc(N4CCN(CCN)CC4)cc3)c3c(=O)[nH]ncc3n2)CC1` [Example 257, 2-(1-(4-((4-(4-(2-aminoethyl)piperazin-1-yl)phenyl)amino)-5-oxo-5,6-dihydropyrimido[4,5-d]pyridazin-2-yl)piperidin-4-yl)acetonitrile] the IC50 was < 10 nM.
`N#CCC1CCN(c2nc(Nc3ccc4c(c3)OCO4)c3c(=O)[nH]ncc3n2)CC1` [Example 328, 2-(1-(4-(benzo[d][1,3]dioxol-5-ylamino)-5-oxo-5,6-dihydropyrimido[4,5-d]pyridazin-2-yl)piperidin-4-yl) acetonitrile] was tested, and the IC50 was > 100 nM.
In the case of `O=c1[nH]ncc2nc(-c3ccccc3)nc(Nc3ccc(N4CCC5(CC4)COC5)cc3)c12` [Example 17, 4-(4-(2-oxa-7-azaspiro[3.5]nonan-7-yl)phenylamino)-2-phenylpyrimido[4,5-d]pyridazin-5(6H)-one], the IC50 is reported as > 100 nM.
`COc1cc(Nc2nc(N3CCC(CC#N)CC3)nc3cn[nH]c(=O)c23)cc(OC)c1` [Example 300, 2-(1-(4-((3,5-dimethoxyphenyl)amino)-5-oxo-5,6-dihydropyrimido[4,5-d]pyridazin-2-yl)piperidin-4-yl)acetonitrile] was tested, and the IC50 was > 100 nM.
`COc1cccc(Nc2nc(N3CCCCCC3)nc3cn[nH]c(=O)c23)c1` [Example 320, 2-(azepan-1-yl)-4-((3-methoxyphenyl)amino)pyrimido[4,5-d]pyridazin-5(6H)-one] was tested, and the IC50 was > 100 nM.
For `O=c1[nH]ncc2nc(N3CCCCCC3)nc(Nc3ccc4c(c3)OCO4)c12` [Example 327, 2-(azepan-1-yl)-4-(benzo[d][1,3]dioxol-5-ylamino)pyrimido[4,5-d]pyridazin-5(6H)-one], the IC50 was > 100 nM.
With `O=C(O)C1CC12CCN(c1ccc(Nc3nc(-c4ccccc4)nc4cn[nH]c(=O)c34)cn1)CC2` (stereo not shown) [Example 137, 6-(5-((5-oxo-2-phenyl-5,6-dihydropyrimido[4,5-d]pyridazin-4-yl)amino)pyridin-2-yl)-6-azaspiro[2.5]octane-1-carboxylic acid] the IC50 was > 100 nM.
In the case of `CCN1CCN(CCn2cc(Nc3nc(-c4ccccc4)nc4cn[nH]c(=O)c34)cn2)CC1` [Example 65, 4-((1-(2-(4-ethylpiperazin-1-yl)ethyl)-1H-pyrazol-4-yl)amino)-2-phenylpyrimido[4,5-d]pyridazin-5(6H)-one], the IC50 is reported as > 100 nM.
`O=c1[nH]ncc2nc(-c3ccccc3)nc(Nc3ccc(OCCN4CCOCC4)cc3)c12` [Example 94, 4-((4-(2-morpholinoethoxy)phenyl)amino)-2-phenylpyrimido[4,5-d]pyridazin-5(6H)-one] was tested, and the IC50 was < 100 nM.
With `O=c1[nH]ncc2nc(N3CCCCCC3)nc(Nc3ccc(N4CCC(F)(F)CC4)cc3)c12` [Example 279, 2-(azepan-1-yl)-4-((4-(4,4-difluoropiperidin-1-yl)phenyl)amino) pyrimido[4,5-d]pyridazin-5(6H)-one] the IC50 was > 100 nM.
For `N#CC1CCN(c2nc(Nc3ccc(OCCN4CCNCC4)cc3)c3c(=O)[nH]ncc3n2)CC1` [Example 149, 1-(5-oxo-4-((4-(2-(piperazin-1-yl)ethoxy)phenyl)amino)-5,6-dihydropyrimido[4,5-d]pyridazin-2-yl)piperidine-4-carbonitrile], the IC50 was > 100 nM.
`O=C(O)C1CC12CCN(c1ccc(Nc3nc(N4CCOCC4)nc4cn[nH]c(=O)c34)cc1)CC2` (stereo not shown) [Example 42, 6-(4-((2-morpholino-5-oxo-5,6-dihydropyrimido[4,5-d]pyridazin-4-yl)amino)phenyl)-6-azaspiro[2.5]octane-1-carboxylic acid] was tested, and the IC50 was < 100 nM.
`COC(=O)c1ccc(-c2nc(Nc3ccc(N4CCOCC4)cc3)c3c(=O)[nH]ncc3n2)cc1` [Example 29, methyl 4-(4-(4-morpholinophenylamino)-5-oxo-5,6-dihydropyrimido[4,5-d]pyridazin-2-yl)benzoate] was tested, and the IC50 was > 100 nM.
`N#CCN1CCN(c2nc(Nc3ccc(OCCN4CCNCC4)cc3)c3c(=O)[nH]ncc3n2)CC1` [Example 230, 2-(4-(5-oxo-4-((4-(2-(piperazin-1-yl)ethoxy)phenyl)amino)-5,6-dihydropyrimido[4,5-d]pyridazin-2-yl)piperazin-1-yl)acetonitrile] was tested, and the IC50 was > 100 nM.
With `N#CCC1CCN(c2nc(Nc3ccc(CN4CCC(C(=O)O)CC4)cc3)c3c(=O)[nH]ncc3n2)CC1` [Example 78, 1-(4-((2-(4-(cyanomethyl)piperidin-1-yl)-5-oxo-5,6-dihydropyrimido[4,5-d]pyridazin-4-yl)amino)benzyl)piperidine-4-carboxylic acid] the IC50 was < 100 nM.
For `CCn1nnc(-c2ccc(Nc3nc(N4CCC(CC#N)CC4)nc4cn[nH]c(=O)c34)cc2)n1` [Example 226, 2-(1-(4-((4-(2-ethyl-2H-tetrazol-5-yl)phenyl)amino)-5-oxo-5,6-dihydropyrimido[4,5-d]pyridazin-2-yl)piperidin-4-yl)acetonitrile], the IC50 was > 100 nM.
In the case of `COc1ccc(Nc2nc(N3CCC(CC#N)CC3)nc3cn[nH]c(=O)c23)cc1OC` [Example 319, 2-(1-(4-((3,4-dimethoxyphenyl)amino)-5-oxo-5,6-dihydropyrimido[4,5-d]pyridazin-2-yl)piperidin-4-yl)acetonitrile], the IC50 is reported as > 100 nM.
In the case of `O=c1[nH]ncc2nc(N3CCCCCC3)nc(Nc3ccc(OC(F)(F)F)cc3)c12` [Example 303, 2-(azepan-1-yl)-4-((4-(trifluoromethoxy)phenyl)amino)pyrimido[4,5-d]pyridazin-5(6H)-one], the IC50 is reported as > 100 nM.
